Assay results taken from ChEMBL document CHEMBL1131780 (Bioorg Med Chem Lett, 1999).
Positions count from the first letter of the chain named.

Columns and labels:
[1] = target: T1, Muscarinic acetylcholine receptor M1 (Homo sapiens) (UniProt P11229); test: Efficacy expressed as PI (percentage of carbachol) against human M1 receptor expressed in CHO cells; format: functional, cell-based
T1 sequence (whole entry): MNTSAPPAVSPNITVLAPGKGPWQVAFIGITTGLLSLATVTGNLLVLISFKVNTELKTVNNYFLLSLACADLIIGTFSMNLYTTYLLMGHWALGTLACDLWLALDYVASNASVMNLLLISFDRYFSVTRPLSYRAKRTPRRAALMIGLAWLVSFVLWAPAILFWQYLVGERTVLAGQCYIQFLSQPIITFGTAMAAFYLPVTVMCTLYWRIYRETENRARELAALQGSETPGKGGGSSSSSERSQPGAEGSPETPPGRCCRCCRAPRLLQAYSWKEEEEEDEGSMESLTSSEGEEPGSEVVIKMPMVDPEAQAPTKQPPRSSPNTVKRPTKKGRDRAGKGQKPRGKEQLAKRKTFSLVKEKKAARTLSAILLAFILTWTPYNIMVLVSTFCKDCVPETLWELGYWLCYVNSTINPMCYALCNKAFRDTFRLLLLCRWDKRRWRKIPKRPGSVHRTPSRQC

[2] = target: T2, Muscarinic acetylcholine receptor M1 (Homo sapiens, UniProt P11229); test: Affinity towards human M1 receptor expressed in CHO cells using [3H]QNB as radioligand; format: cell-based
T2 sequence (P11229 whole entry): T1 sequence (whole entry)

[3] = target: T2, Muscarinic acetylcholine receptor M1; test: In vitro functional agonism against M1 muscarinic receptor (PI)
[4] = target: T3, Muscarinic acetylcholine receptor M2 (Homo sapiens, UniProt P08172); test: In vitro functional agonism against M2 muscarinic receptor (cAMP)
T3 sequence (P08172 whole entry): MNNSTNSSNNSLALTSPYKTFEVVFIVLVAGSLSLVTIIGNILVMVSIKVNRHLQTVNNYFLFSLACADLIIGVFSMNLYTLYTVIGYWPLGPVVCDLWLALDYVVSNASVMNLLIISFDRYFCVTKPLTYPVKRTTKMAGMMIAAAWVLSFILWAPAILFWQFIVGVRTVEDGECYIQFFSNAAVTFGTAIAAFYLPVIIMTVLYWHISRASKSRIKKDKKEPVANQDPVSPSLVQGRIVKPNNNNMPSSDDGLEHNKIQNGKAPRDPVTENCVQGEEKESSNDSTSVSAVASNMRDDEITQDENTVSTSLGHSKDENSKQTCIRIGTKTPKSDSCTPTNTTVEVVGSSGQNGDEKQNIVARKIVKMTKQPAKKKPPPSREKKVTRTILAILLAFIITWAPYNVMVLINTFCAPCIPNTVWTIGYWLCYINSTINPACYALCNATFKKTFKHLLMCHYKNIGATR

Monkey [5] = test: In vivo cognitive assessment after oral administration of WAY-132983 in primates (Rhesus and cynomolgus monkeys) using pre-trained aged subjects (short delay); format: functional; conditions: Cercopithecidae, read-out: MED
[6] = target: T4, Muscarinic acetylcholine receptor M1 (Rattus norvegicus, UniProt P08482); test: Binding affinity against M1 receptor was determined by displacing [3H]OXO-M in rat cortical homogenate
T4 sequence (P08482 whole entry): T1 sequence (whole entry) with A5V, T254S, P309S, R320K, A337G, I413V

[7] = Compound was evaluated for half-life in human liver microsomes; format: ADME, Microsome
Monkey [8] = test: In vivo cognitive assessment after oral administration of WAY-132983 in primates (Rhesus and cynomolgus monkeys) using pre-trained aged subjects (long delay); format: functional; conditions: Cercopithecidae, read-out: MED
[9] = target: T5, Muscarinic acetylcholine receptor M3 (Homo sapiens, UniProt P20309); test: In vitro functional agonism against M3 muscarinic receptor (PI)
T5 sequence (P20309 whole entry): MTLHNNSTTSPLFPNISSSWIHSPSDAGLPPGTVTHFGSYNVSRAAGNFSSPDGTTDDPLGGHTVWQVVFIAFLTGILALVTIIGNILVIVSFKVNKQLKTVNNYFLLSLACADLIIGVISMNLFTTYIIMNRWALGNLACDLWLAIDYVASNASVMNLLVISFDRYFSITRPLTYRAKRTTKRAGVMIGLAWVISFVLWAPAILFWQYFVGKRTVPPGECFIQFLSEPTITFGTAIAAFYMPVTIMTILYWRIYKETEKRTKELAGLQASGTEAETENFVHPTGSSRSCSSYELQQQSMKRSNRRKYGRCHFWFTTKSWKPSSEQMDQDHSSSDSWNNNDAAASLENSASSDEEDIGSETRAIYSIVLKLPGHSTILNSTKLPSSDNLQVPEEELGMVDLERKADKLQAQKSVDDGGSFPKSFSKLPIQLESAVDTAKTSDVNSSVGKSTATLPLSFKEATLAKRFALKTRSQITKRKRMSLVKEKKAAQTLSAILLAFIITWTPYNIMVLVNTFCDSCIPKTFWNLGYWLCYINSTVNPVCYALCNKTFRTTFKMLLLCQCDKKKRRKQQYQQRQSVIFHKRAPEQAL

Rattus norvegicus [10] = test: Compound was evaluated in vivo for cognitive impairment reduction in AF64-impaired RAM, rat administered subcutaneously; format: functional; conditions: sc, read-out: MED
[11] = target: T5, Muscarinic acetylcholine receptor M3; test: Binding affinity towards human muscarinic M3 receptor
[12] = target: T3, Muscarinic acetylcholine receptor M2; test: Binding affinity towards human muscarinic M2 receptor
Rattus norvegicus [13] = organism: Rattus norvegicus; test: Compound was evaluated for minimum effective dose in the rat radial arm maze model; format: functional; conditions: read-out: MED
[14] = target: T1, Muscarinic acetylcholine receptor M1 (Homo sapiens)
Description: Effective dose against affinity towards human muscarinic M1 receptor

[15] = target: T6, Muscarinic acetylcholine receptor M2 (Homo sapiens) (UniProt P08172); test: Effective dose against affinity towards human muscarinic M2 receptor; format: functional
T6 sequence (whole entry): T3 sequence (P08172 whole entry)

[16] = Compound was evaluated in vivo for lethal dose in rats; format: ADME, organism-based; conditions: rat

`CCCCCCSc1nccnc1SC1CN2CCC1C2` (stereo not given) gave a PI [1] of 62%.

Compound `CCCCCCSc1nccnc1OC1CN2CCC1C2` (stereo in doubt; 4) [listing 1 of 2 here] has a PI [1] of 85%.

For `c1cnc(O[C@@H]2CN3CCC2C3)cn1` (stereo in doubt; 1) [listing 1 of 2 here], the PI [1] was 96%.

Work on `CCCCCCOc1nccnc1SC1CN2CCC1C2` (stereo not given) yielded a PI [1] of 42%.

`CCCCCCSc1nccnc1OC1CN2CCC1C2` (stereo in doubt; 4) [listing 2 of 2 here] showed a Ki [2] of 7 nM.

In the case of `CCCCCCSc1nccnc1OC1CN2CCC1C2` (stereo in doubt; 8), the PI [1] is reported as 104%.

Work on `CCCCCCSc1nccnc1O[C@H]1CN2CCC1C2` (stereo not given in full) yielded a Ki [2] of 124 nM.

`CCCCCCOc1nsnc1C1=CCCN(C)C1` gave a PI [1] of 79%.

Work on `CCCCCCSc1nccnc1O[C@H]1CN2CCC1C2.Cl` (stereo not given in full) yielded an EC50 [3] of 1.1 nM, an EC50 [4] of 8 nM and a minimal effective dose (Monkey [5]) of 0.03 mg/kg. For the same compound, the Ki [6] was 0.4 nM, the half-life [7] was 1.88 h and the minimal effective dose (Monkey [8]) was 0.01 mg/kg. The EC50 [9] was 3.7 nM, the minimal effective dose (Rattus norvegicus [10]) was 0.03 mg/kg and the Ki [2] was 2 nM. The Ki [11] was 5.9 nM and the Ki [12] was 3.4 nM.

With `c1cnc(O[C@@H]2CN3CCC2C3)cn1` (stereo in doubt; 2) [listing 1 of 2 here] the Ki [2] was 2500 nM.

For `CCCCCCSc1nccnc1O[C@@H]1CN2CCC1C2` (stereo not given in full), the PI [1] was 107% and the Ki [2] was 75 nM.

With `CCCCCCOc1nccnc1O[C@@H]1CN2CCC1C2` (stereo in doubt; 12) [listing 1 of 2 here] the Ki [2] was 465 nM.

`CCCCCCOc1nccnc1O[C@@H]1CN2CCC1C2` (stereo in doubt; 6) showed a Ki [2] of 14 nM.

With `CNC(=O)O[C@@H]1CN2CCC1C2` (stereo not given in full) the PI [1] was 100%, the minimal effective dose (Rattus norvegicus [13]) was 1 mg/kg and the Ki [2] was 26000 nM.

Work on `c1cnc(O[C@@H]2CN3CCC2C3)cn1` (stereo in doubt; 2) [listing 2 of 2 here] yielded a PI [1] of 83%.

For `CCCCCCOc1nccnc1OC1CN2CCC1C2` (stereo not given), the PI [1] was 88%, the ED50 [14] was 1.4 nM and the ED50 [15] was 600 nM. The Ki [12] was 20 nM.

In the case of `CCCCCCOc1nccnc1O[C@H]1CN2CCC1C2` (stereo not given in full), the PI [1] is reported as 56% and the Ki [2] is reported as 690 nM.

Compound `CCCCCCSc1cncc(OC2CN3CCC2C3)n1` (stereo not given) has a PI [1] of 2% and a Ki [2] of 22 nM.

Work on `c1cnc(O[C@@H]2CN3CCC2C3)cn1` (stereo in doubt; 1) [listing 2 of 2 here] yielded a Ki [2] of 5600 nM, a Ki [12] of 40 nM and an LD50 [16] of 30 mg/kg.

Work on `CCCCCCOc1nccnc1O[C@@H]1CN2CCC1C2` (stereo in doubt; 12) [listing 2 of 2 here] yielded a PI [1] of 9%.
